Measured values taken from ChEMBL document CHEMBL1132315, “Pharmacophore models of group I and group II metabotropic glutamate receptor agonists. Analysis of conformational, steric, and topological parameters affecting potency and selectivity” (J Med Chem, 1999).

How the values were obtained:
[1] = The effective concentration for 50% glutamate response was measured on Group I Metabotropic glutamate receptor; format: functional
[2] = The effective concentration for 50% glutamate response was measured on Group II Metabotropic glutamate receptor; format: functional
[3] = (§1) Percentage of glutamate maximal response was measured on Group II Metabotropic glutamate receptor; format: functional
[4] = Percent glutamate response was measured on group 1 Metabotropic Glutamate Receptors
[5] = as §1; format: functional; remark: listed apart in the source

| EC50 [1] [µM] | EC50 [2] [µM] | EC50 [3] [µM] | Response [4] [%] | Response [5] [%] | Compound |
| --- | --- | --- | --- | --- | --- |
|  |  | 0.1 |  |  | NC(C(=O)O)C1[C@@H](C(=O)O)[C@@H]1C(=O)O (stereo not given in full) |
|  |  | 30 | 10 |  | NC1(C(=O)O)C2CCC1C(C(=O)O)C2 (stereo not given) |
| 6.6 |  |  |  |  | N[C@H](C(=O)O)c1cc(O)cc(O)c1 |
| > 1000 | 3.5 |  |  |  | N[C@@]1(C(=O)O)CN[C@@H](C(=O)O)C1 |
| 189 | > 100 |  |  |  | O=C(O)[C@H]1C[C@H](C(=O)O)N1 |
|  |  |  |  | < 15 | N[C@H](C(=O)O)c1cccc(O)c1 |
| 5 | 0.3 |  |  |  | N[C@@H](C(=O)O)[C@H]1CC1C(=O)O (single isomer, unassigned) |
| 20 |  |  |  |  | N[C@@H](C(=O)O)[C@@H]1CC1C(=O)O (single isomer, unassigned) |
|  |  |  |  | 50 | NC1(C(=O)O)CC2CCC1C2C(=O)O (stereo in doubt; 8) |
|  |  |  | 12 | 50 | NC1(C(=O)O)CC2CCC1C2C(=O)O (stereo in doubt; 9) |
| 1.6 | 0.33 |  |  |  | NC1(C(=O)O)CC2CC1C2C(=O)O (stereo in doubt; 12) |
| 121 | 54 |  |  |  | NC1(C(=O)O)CC2CC1C2C(=O)O (stereo in doubt; 21) |
| 232 | 38 |  |  |  | NC1(C(=O)O)CC2CC1C2C(=O)O (stereo in doubt; 22) |
| > 1000 | 0.032 |  |  |  | N[C@@]1(C(=O)O)CC[C@H]2[C@H](C(=O)O)[C@H]21 [EGLUMETAD] |
| 4.9 | 0.29 |  |  |  | N[C@@H](CCC(=O)O)C(=O)O [GLUTAMIC ACID] |

| Compound | EC50 [1] [µM] | EC50 [2] [µM] | EC50 [3] [µM] | Response [4] [%] | Response [5] [%] |
| --- | --- | --- | --- | --- | --- |
| N[C@@]1(C(=O)O)CC[C@H](C(=O)O)C1 | > 300 | 13 |  |  |  |
| N[C@@]1(C(=O)O)CC[C@@H](C(=O)O)C1 | 9.3 | 18 |  |  |  |
| N[C@]1(C(=O)O)CC[C@H](C(=O)O)C1 | 127 | 110 |  |  |  |
| N[C@H](C(=O)O)c1cc(O)no1 [IBOTENIC ACID] | 6 | 50 |  |  |  |
| N[C@@H](Cn1oc(=O)[nH]c1=O)C(=O)O [QUISQUALATE] | 0.9 | 100 |  |  |  |
